The values below come from PubChem BioAssay AID328 (DTP/NCI, 2004).

This experiment has as its system BDF1 mice, P388 leukemia ip, median survival T/C. In words: NCI In Vivo Anticancer Drug Screen. Data for tumor model P388 Leukemia (intraperitoneal) in B6D2F1 (BDF1) mice. Particulars: endpoint: median survival time, higher = longer survival. An outline of the steps:
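Antitumour effect was judged in vivo: survival in drug-treated mice, normalised to that of vehicle-dosed controls, gives the reported T/C.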

Setting [1] is: dose: 50.0 mg/kg/injection, schedule: Q01DX009 (ip), vehicle: saline with Tween-80.
Where [2] appears, read: dose: 100.0 mg/kg/injection, schedule: Q04DX003 (ip), vehicle: Klucel (hydroxypropylcellulose) (HPC).
Setting [3] is: dose: 200.0 mg/kg/injection, schedule: Q04DX003 (ip), vehicle: Klucel (hydroxypropylcellulose) (HPC).
The mark [4] stands for this setting: dose: 400.0 mg/kg/injection, schedule: Q04DX003 (ip), vehicle: Klucel (hydroxypropylcellulose) (HPC).
The mark [5] stands for this setting: dose: 100.0 mg/kg/injection, schedule: Q04DX003 (ip), vehicle: saline.
[6] abbreviates: dose: 200.0 mg/kg/injection, schedule: Q01DX009 (ip), vehicle: saline with Tween-80.

Structures are written as SMILES. Several values for one entry are separate records, joined by “and”; a condition that tells them apart may be missing. Equal entries are not always repeated. Toxic doses and inconclusive results are not listed.

Regarding `O=C(CC(=O)C(F)(F)F)c1csc2ccccc12`, the T/C (dose: 12.5 mg/kg/injection, schedule: Q01DX009 (ip), vehicle: saline with Tween-80) is 100 % of control; the T/C (dose: 25.0 mg/kg/injection, schedule: Q01DX009 (ip), vehicle: gum acacia) is 112 % of control; the T/C (dose: 25.0 mg/kg/injection, schedule: Q01DX009 (ip), vehicle: saline with Tween-80) was 112 % of control; the T/C (dose: 25.0 mg/kg/injection, schedule: Q04DX003 (ip), vehicle: gum acacia) is 111 % of control; the T/C (dose: 50.0 mg/kg/injection, schedule: Q01DX001 (ip), vehicle: Klucel (hydroxypropylcellulose) (HPC)) is 104 % of control; the T/C (dose: 50.0 mg/kg/injection, schedule: Q01DX009 (ip), vehicle: gum acacia) was 120 % of control. For the same molecule, the T/C under setting [1] was 91 % of control; the T/C (dose: 50.0 mg/kg/injection, schedule: Q04DX003 (ip), vehicle: gum acacia) was 100 % of control; the T/C (dose: 66.0 mg/kg/injection, schedule: Q01DX009 (ip), vehicle: gum acacia) was 107 % of control; the T/C (dose: 66.0 mg/kg/injection, schedule: Q01DX009 (ip), vehicle: saline with Tween-80) was 120 % of control; the T/C (dose: 75.0 mg/kg/injection, schedule: Q01DX009 (ip), vehicle: Klucel (hydroxypropylcellulose) (HPC)) was 115 % of control; the T/C (dose: 100.0 mg/kg/injection, schedule: Q01DX001 (ip), vehicle: Klucel (hydroxypropylcellulose) (HPC)) is 113 % of control. For the same molecule, the T/C by setting is: (dose: 100.0 mg/kg/injection, schedule: Q04DX003 (ip), vehicle: gum acacia) 107 % of control and 111 % of control; (dose: 115.0 mg/kg/injection, schedule: Q01DX009 (ip), vehicle: Klucel (hydroxypropylcellulose) (HPC)) 120 % of control; (dose: 150.0 mg/kg/injection, schedule: Q01DX009 (ip), vehicle: gum acacia) 100 % of control; (dose: 200.0 mg/kg/injection, schedule: Q01DX001 (ip), vehicle: Klucel (hydroxypropylcellulose) (HPC)) 86 % of control.
Take `C1=C(c2ccccc2)C(c2ccccc2)C(c2ccccc2)C/C1=N/OCCN1CCCC1` (configuration not stated): the T/C by setting is: (dose: 6.0 mg/kg/injection, schedule: Q01DX009 (ip), vehicle: saline with Tween-80) 108 % of control; (dose: 6.0 mg/kg/injection, schedule: Q04DX003 (ip), vehicle: saline with Tween-80) 118 % of control; (dose: 8.0 mg/kg/injection, schedule: Q01DX009 (ip), vehicle: saline with Tween-80) 100 % of control; (dose: 12.0 mg/kg/injection, schedule: Q01DX009 (ip), vehicle: saline with Tween-80) 115 % of control; (dose: 18.0 mg/kg/injection, schedule: Q01DX009 (ip), vehicle: saline with Tween-80) 107 % of control; (dose: 25.0 mg/kg/injection, schedule: Q04DX003 (ip), vehicle: saline with Tween-80) 100 % of control.
`CC(=O)CC(=O)Nc1nc2ccccc2s1`: the T/C was 94 % of control (dose: 50.0 mg/kg/injection, schedule: Q01DX009 (ip), vehicle: saline) and 105 % of control (dose: 200.0 mg/kg/injection, schedule: Q01DX009 (ip), vehicle: saline).
As to `COc1ccc(OC)c(NC(=O)Nc2c(C)n(C)n(-c3ccccc3)c2=O)c1`, the T/C is 105 % of control (dose: 100.0 mg/kg/injection, schedule: Q01DX009 (ip), vehicle: Klucel (hydroxypropylcellulose) (HPC)); 90 % of control (dose: 200.0 mg/kg/injection, schedule: Q01DX009 (ip), vehicle: Klucel (hydroxypropylcellulose) (HPC)); 105 % of control (dose: 400.0 mg/kg/injection, schedule: Q01DX009 (ip), vehicle: Klucel (hydroxypropylcellulose) (HPC)).
In the case of `CN(C)c1ccc(/C=C\c2cc(=O)[nH]c3ccccc23)cc1`, the T/C is 87 % of control under setting [2], 91 % of control under setting [3] and 87 % of control under setting [4].
Take `CS(=O)(=O)ON1C(=O)c2ccccc2C1=O`: the T/C under setting [5] was 120 % of control.
For `CN1CCN(CCCN2c3ccccc3Sc3ccc(C(F)(F)F)cc32)CC1`, the T/C reads like this: (dose: 6.25 mg/kg/injection, schedule: Q01DX009 (ip), vehicle: saline) 109 % of control; (dose: 9.37 mg/kg/injection, schedule: Q01DX009 (ip), vehicle: saline) 118 % of control; (dose: 9.37 mg/kg/injection, schedule: Q04DX003 (ip), vehicle: saline with Tween-80) 117 % of control; (dose: 12.5 mg/kg/injection, schedule: Q01DX009 (ip), vehicle: saline) 109 % of control and 118 % of control; (dose: 18.75 mg/kg/injection, schedule: Q04DX003 (ip), vehicle: saline with Tween-80) 121 % of control; (dose: 44.0 mg/kg/injection, schedule: Q01DX009 (ip), vehicle: saline with Tween-80) 107 % of control. Besides, the T/C is 113 % of control (dose: 50.0 mg/kg/injection, schedule: Q04DX003 (ip), vehicle: saline with Tween-80); 115 % of control (dose: 75.0 mg/kg/injection, schedule: Q04DX003 (ip), vehicle: saline); 150 % of control and 163 % of control (dose: 100.0 mg/kg/injection, schedule: Q04DX003 (ip), vehicle: saline with Tween-80).
With `C/C(c1nc(N)nc(N)c1-c1ccc(Cl)cc1)=[N+](\C)[O-]`, the T/C is 95 % of control (dose: 100.0 mg/kg/injection, schedule: Q01DX001 (ip), vehicle: saline with Tween-80); 104 % of control (dose: 200.0 mg/kg/injection, schedule: Q01DX001 (ip), vehicle: saline with Tween-80); 97 % of control (dose: 400.0 mg/kg/injection, schedule: Q01DX001 (ip), vehicle: saline with Tween-80).
As for `ClCCc1cnc[nH]1`, the T/C runs as follows: (dose: 6.25 mg/kg/injection, schedule: Q04DX003 (ip), vehicle: water) 104 % of control; (dose: 12.5 mg/kg/injection, schedule: Q04DX003 (ip), vehicle: water) 108 % of control; (dose: 25.0 mg/kg/injection, schedule: Q04DX003 (ip), vehicle: water) 112 % of control; (dose: 50.0 mg/kg/injection, schedule: Q04DX003 (ip), vehicle: water) 105 % of control; (dose: 100.0 mg/kg/injection, schedule: Q04DX003 (ip), vehicle: water) 98 % of control.
On to `CCCCCCCCCCCCCCCCOc1c(Br)cc(Br)cc1Br`, for which, where the note is “dose: 50.0 mg/kg/injection, schedule: Q01DX001 (ip), vehicle: saline with Tween-80”, the T/C is 90 % of control.
Consider `COc1cccc2c1C(=O)c1c(O)c(COC3CC(N)C(O)C(C)O3)cc(O)c1C2=O` (configuration not stated), for which the T/C (dose: 12.5 mg/kg/injection, schedule: Q01DX009 (ip), vehicle: water) was 100 % of control and the T/C (dose: 25.0 mg/kg/injection, schedule: Q01DX009 (ip), vehicle: water) was 100 % of control.
Regarding `CCOC(=O)c1ccccc1OP(=O)(N(C)C)N(C)C`, the T/C was 106 % of control under setting [1] and 122 % of control under setting [6].
Turning to `CC(C)(C)C1CNP(=O)(c2ccccc2)OC1` (configuration not stated), the T/C was 99 % of control (dose: 50.0 mg/kg/injection, schedule: Q01DX005 (ip), vehicle: saline with Tween-80); 101 % of control (dose: 100.0 mg/kg/injection, schedule: Q01DX005 (ip), vehicle: saline with Tween-80); 100 % of control (dose: 200.0 mg/kg/injection, schedule: Q01DX005 (ip), vehicle: saline with Tween-80).
With `C=C1CCC2(C(C)C)CC12` (configuration not stated), the T/C (dose: 100.0 mg/kg/injection, schedule: Q01DX001 (ip), vehicle: saline sonified) is 109 % of control; the T/C (dose: 200.0 mg/kg/injection, schedule: Q01DX001 (ip), vehicle: saline sonified) is 104 % of control; the T/C (dose: 400.0 mg/kg/injection, schedule: Q01DX001 (ip), vehicle: saline sonified) is 104 % of control.
As for `C#CCOCC(CCl)OC(N)=O` (configuration not stated), the T/C was 110 % of control under setting [1]; 114 % of control (dose: 100.0 mg/kg/injection, schedule: Q01DX009 (ip), vehicle: saline with Tween-80); 110 % of control under setting [5]; 107 % of control under setting [6]; 120 % of control (dose: 200.0 mg/kg/injection, schedule: Q04DX003 (ip), vehicle: saline).
On to `Cc1ccc(NS(=O)(=O)c2ccc(F)cc2)c(C)c1`, for which the T/C by setting is: under setting [2], 100 % of control; under setting [3], 100 % of control; under setting [4], 100 % of control.
